# Laboratory results reported in patent US20250381179A1, “CHROMAN-BASED COMPOUNDS FOR TREATING CANCER” (priority 2024, published 2025).
# Experiments:
# MCF7 cells = experiment: MCF7 cell growth inhibition (luminescence-based proliferation assay, CellTiter-Glo)
# Method: MCF7 cells were obtained from American Type Culture Collection (ATCC). For cell growth assay, MCF7 cells were seeded in 96-well plates at 2000 cells/well in 90 μL of DMEM medium containing 10% fetal bovine serum, and then incubated at 37° C. with 5% CO2 in air overnight. The following day, compound (1-g) and compound (1-h) were administered to the cells by using 1000× compound stock solution prepared in DMSO at concentrations of 3, 1, 0.33, 0.11, 0.037, 0.012, 0.0041, 0.0013, and 0.00046 mM. 1000x compound stock solution was first diluted in culturing medium to 10×, then 10 μL compound medium was added to each well in the cell plates. After administration of compound (1-g) and compound (1-h), the cells were then incubated at 37° C. for 6 days. Upon completion, the plates were equilibrated at room temperature for approximately 10 minutes. 100 μL of CellTiter-Glo® Reagent (Promega) was added to each well. The plates were then incubated at room temperature for 10 minutes and luminescence was recorded by EnSpire plate reader (PerkinElmer).
# [1] = test system: tamoxifen-resistant MCF7 xenograft; experiment: Tamoxifen-resistant MCF7 xenograft model; type: in vivo, mice; conditions: in combination with the CDK4/6 inhibitor palbociclib
# [2] = Exposure after repeat oral administration in GLP toxicology study, rats; type: in vivo
# Source text: (§1) There were no marked sex-based differences in exposure, but in the 28-day toxicity study of compound (1-g) in rats, exposures were 1.4 to 1.9-fold higher in female rats compared to males.
# [3] = Exposure after repeat oral administration in GLP toxicology study, dogs; type: in vivo
# Source text: as §1
# CYP2C8 = target: T1, CYP2C8 (Homo sapiens, UniProt P10632); experiment: CYP2C8 direct inhibition; type: in vitro ADME; conditions: highest concentration evaluated (10 μM)
# T1 sequence (P10632 1-490): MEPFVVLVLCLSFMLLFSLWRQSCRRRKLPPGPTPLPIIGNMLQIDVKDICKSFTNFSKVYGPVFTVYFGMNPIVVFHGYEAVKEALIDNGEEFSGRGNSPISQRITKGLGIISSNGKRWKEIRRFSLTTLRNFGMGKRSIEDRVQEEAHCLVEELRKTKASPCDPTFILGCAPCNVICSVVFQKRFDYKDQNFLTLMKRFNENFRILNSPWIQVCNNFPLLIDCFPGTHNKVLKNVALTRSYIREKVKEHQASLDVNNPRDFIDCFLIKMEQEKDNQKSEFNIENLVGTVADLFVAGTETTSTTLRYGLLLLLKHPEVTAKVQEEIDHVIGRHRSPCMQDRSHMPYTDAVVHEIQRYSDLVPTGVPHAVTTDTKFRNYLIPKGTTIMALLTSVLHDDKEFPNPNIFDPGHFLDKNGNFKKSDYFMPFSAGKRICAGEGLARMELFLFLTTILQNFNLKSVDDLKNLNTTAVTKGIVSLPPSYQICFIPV
# CYP3A [4] = experiment: CYP3A direct inhibition; type: in vitro ADME; conditions: highest concentration evaluated (10 μM)
# [5] = rat, in vivo, po
# CYP2B6 = target: T2, CYP2B6 (Homo sapiens, UniProt P20813)
# T2 sequence (P20813 1-491): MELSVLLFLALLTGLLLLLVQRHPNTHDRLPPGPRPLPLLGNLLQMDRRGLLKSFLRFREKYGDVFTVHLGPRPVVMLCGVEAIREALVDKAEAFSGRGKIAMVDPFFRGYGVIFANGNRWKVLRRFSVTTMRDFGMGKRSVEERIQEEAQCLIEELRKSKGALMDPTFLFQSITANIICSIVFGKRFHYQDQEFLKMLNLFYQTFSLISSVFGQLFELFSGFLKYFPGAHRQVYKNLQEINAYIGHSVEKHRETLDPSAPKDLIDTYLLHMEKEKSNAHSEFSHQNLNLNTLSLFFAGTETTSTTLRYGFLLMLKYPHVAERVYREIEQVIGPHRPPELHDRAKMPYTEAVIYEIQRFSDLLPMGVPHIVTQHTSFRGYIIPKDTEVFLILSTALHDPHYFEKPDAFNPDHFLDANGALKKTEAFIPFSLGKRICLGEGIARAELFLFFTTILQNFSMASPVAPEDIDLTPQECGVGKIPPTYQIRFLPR
# CYP2C9 = CYP2C9 (Homo sapiens, UniProt P11712)
# CYP2C19 = CYP2C19 (Homo sapiens, UniProt P33261)
# CYP3A [6] = test system: CYP3A
# in vivo [7] = conditions: female, rat, po
# in vivo [8] = conditions: male, rat, po
# CYP3A [9] = experiment: in vitro; conditions: human
# CYP2C19, sequence (P33261 whole entry): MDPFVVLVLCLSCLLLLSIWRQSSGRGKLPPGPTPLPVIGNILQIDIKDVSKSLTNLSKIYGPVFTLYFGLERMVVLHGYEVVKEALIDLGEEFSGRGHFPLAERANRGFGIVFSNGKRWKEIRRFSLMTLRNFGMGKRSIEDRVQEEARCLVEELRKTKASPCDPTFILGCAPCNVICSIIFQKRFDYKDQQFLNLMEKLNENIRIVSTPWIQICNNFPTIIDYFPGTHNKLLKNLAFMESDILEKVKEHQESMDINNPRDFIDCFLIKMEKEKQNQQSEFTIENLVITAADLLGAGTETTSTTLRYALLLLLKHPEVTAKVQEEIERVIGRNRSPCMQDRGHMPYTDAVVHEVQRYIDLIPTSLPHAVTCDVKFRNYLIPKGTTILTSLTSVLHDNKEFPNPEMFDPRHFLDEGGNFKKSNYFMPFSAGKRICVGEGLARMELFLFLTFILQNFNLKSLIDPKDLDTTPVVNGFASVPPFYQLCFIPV
# CYP2C9, sequence (P11712 whole entry): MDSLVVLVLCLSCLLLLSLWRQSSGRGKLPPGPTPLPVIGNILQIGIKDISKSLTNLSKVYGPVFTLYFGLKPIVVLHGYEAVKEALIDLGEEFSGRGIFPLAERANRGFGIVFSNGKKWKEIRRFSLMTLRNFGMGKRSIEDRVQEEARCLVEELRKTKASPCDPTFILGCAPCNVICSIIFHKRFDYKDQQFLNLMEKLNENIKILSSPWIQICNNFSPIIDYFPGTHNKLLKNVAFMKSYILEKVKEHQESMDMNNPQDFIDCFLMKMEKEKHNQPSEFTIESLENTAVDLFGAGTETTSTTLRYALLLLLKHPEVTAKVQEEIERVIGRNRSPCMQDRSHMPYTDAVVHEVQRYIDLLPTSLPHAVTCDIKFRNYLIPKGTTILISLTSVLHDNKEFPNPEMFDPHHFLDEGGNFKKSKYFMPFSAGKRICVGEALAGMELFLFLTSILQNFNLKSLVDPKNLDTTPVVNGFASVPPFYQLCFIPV
smiles,measurement,setting,value
"O=C1CC[C@H](N2Cc3cc(N4CCN(CC5CCN(c6ccc([C@@H]7c8ccc(O)cc8OC[C@@H]7c7ccccc7)cc6F)CC5)CC4)ccc3C2=O)C(=O)N1 [compound (1-g), (S)-3-(5-(4-((1-(2-fluoro-4-((3S,4R)-7-hydroxy-3-phenylchroman-4-yl)phenyl)piperidin-4-yl)methyl)piperazin-1-yl)-1-oxoisoindolin-2-yl)piperidine-2,6-dione]",GI50,"MCF7 cells; Homo sapiens, 144 h, MCF7 cells, 6 days, CellTiter-Glo",6.2 nM
same,reduced the tumor growth by (FIG. 3A/3B),MCF7 cells; MCF7 cell proliferation assay,about 50%
same,anti-tumor activity in combination,[1],enhanced anti-tumor activity was observed
same,accumulation with repeated dosing,[2],No significant accumulation
same,exposure (AUC0-24h) versus dose,[2]; repeat oral administration,increased in an approximately dose-dependent manner
same,accumulation with repeated dosing,[3],No significant accumulation
same,change of exposure following repeat dosing,[3]; 45 mg/kg/day,decreased in females and slightly decreased in males
same,dose proportionality of exposure,"[3]; 5 to 45 mg/kg/day, repeat administration",slightly less than dose proportional
same,exposure (AUC0-24h) versus dose,[3]; repeat oral administration,increased in an approximately dose-dependent manner
same,CYP2C8 direct inhibition,CYP2C8,did not directly inhibit
same,CYP3A direct inhibition,CYP3A [4],did not directly inhibit
same,"presence in mammary gland tissue, ovaries and uterus",[5],quantifiable in mammary gland tissue
same,tissue exposure,[5],highest exposures were observed in the large and small intestine with limited exposure to the brain
same,CYP2B6 time-dependent inhibition,CYP2B6,without showing time-dependent inhibition
same,CYP2C9 time-dependent inhibition,CYP2C9,without showing time-dependent inhibition
same,CYP2C19 time-dependent inhibition,CYP2C19,without showing time-dependent inhibition
same,CYP3A time-dependent inhibition,CYP3A [6],weak time-dependent inhibition
same,highest non-severely-toxic dose (HNSTD),"both, dog, in vivo, po, 28 day",45 mg/kg/day
same,off-target adverse toxicities,"dog, in vivo",no off-target adverse toxicities observed
same,key organ effects,"dogs, 28-day GLP",considered on target pharmacological effects
same,AUC,in vivo [7]; AUC in the evaluated tissues (compared with plasma),> 2800 ng·h/mL
same,AUC,in vivo [7]; plasma AUC,2800 ng·h/mL
same,NOAEL at 28 day,in vivo [8],270 mg/kg/day
same,inhibition at 10 µM,CYP3A [9],31.3%
